# Target: T1, lipases, preferably HSL (Rattus norvegicus, UniProt P15304)
# T1 sequence (P15304 1-768 isoform P15304-2): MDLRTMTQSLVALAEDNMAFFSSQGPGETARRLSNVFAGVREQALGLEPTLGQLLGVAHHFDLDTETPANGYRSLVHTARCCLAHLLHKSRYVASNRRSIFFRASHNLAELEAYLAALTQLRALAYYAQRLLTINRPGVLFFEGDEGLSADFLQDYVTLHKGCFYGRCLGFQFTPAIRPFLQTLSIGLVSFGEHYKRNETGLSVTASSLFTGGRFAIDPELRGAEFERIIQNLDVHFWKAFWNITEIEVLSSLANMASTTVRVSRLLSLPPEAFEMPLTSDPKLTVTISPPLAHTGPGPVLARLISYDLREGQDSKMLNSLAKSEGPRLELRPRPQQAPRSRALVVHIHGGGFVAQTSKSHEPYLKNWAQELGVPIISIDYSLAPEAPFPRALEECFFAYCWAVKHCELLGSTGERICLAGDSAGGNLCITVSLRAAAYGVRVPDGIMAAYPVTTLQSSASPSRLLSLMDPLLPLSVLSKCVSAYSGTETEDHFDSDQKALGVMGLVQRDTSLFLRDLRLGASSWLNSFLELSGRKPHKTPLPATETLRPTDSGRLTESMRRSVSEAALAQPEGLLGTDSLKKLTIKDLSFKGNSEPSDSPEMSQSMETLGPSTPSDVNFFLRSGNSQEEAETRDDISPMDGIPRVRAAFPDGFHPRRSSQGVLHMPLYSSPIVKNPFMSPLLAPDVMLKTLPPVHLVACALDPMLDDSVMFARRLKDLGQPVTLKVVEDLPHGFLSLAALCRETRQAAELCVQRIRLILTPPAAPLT
# Assay: Synthesized NBD-acylglycerides as substrates of lipases
# Assay type: biochemical
row,Compound,Activity as substrate of lipases
1,"O=C(CCCCCCCCCCCNc1ccc([N+](=O)[O-])c2nonc12)OC[C@@H](O)CO [(3a), (S)-2,3-Dihydroxypropyl 12-(7-nitrobenzo[1,2,5]oxadiazol-4-ylamino) dodecanoate]",identical biological activity
2,"O=C(CCCCCCCCCCCNc1ccc([N+](=O)[O-])c2nonc12)OC[C@H](O)CO [Compound (3b), (R)-2,3-dihydroxypropyl 12-(7-nitrobenzo[1,2,5]oxadiazol-4-ylamino)dodecanoate]",identical biological activity
3,"CC(=O)OCC(COC(=O)CCCCCCCCCCCNc1ccc([N+](=O)[O-])c2nonc12)OC(C)=O (centres unmarked) [Compound (4), 2-Acetoxy-3-[12-(7-nitrobenzo[1,2,5]oxadiazol-4-ylamino)-dodecanoyloxy]propyl acetate]",decrease in activity
4,"CCCCCC(=O)OCC(COC(=O)CCCCCCCCCCCNc1ccc([N+](=O)[O-])c2nonc12)OC(=O)CCCCC (centres unmarked) [Compound (5), 2-Hexanoyloxy-3-[12-(7-nitrobenzo[1,2,5]oxadiazol-4-ylamino)-dodecanoyloxy]propyl hexanoate]",decrease in activity
5,"CCCCCCCCCCCCCCCC(=O)OCC(COC(=O)CCCCCCCCCCCNc1ccc([N+](=O)[O-])c2nonc12)OC(C)=O (centres unmarked) [Compound (7), 2-Acetyloxy-3-[12-(7-nitrobenzo[1,2,5]oxadiazol-4-ylamino)-dodecanoyloxy]propyl hexadecanoate]",decrease in activity
